Data taken from patent publication US10414769B2, “5,8-dimethyl-9-phenyl-5,8-dihydro-6H-pyrazolo[3,4-h]quinazolin-2-yl)-(1H-pyrazol-3-yl)-amines as IGF-1R/IR inhibitors” (Boehringer Ingelheim International GmbH, priority 2015, dated 2019).

How the values were obtained:
[1] = test system: HCT 116 (colorectal carcinoma) cells; experiment: Cell proliferation assay HCT 116 (Alamar Blue); format: cell-based; details: Homo sapiens; anti-proliferative effect, HCT 116 cells (negative control line), 72 h
Experimental: (§1) Cell Proliferation Assays
(§2) Compounds were tested for their anti-proliferative effects in the TC-71 (EWING'S sarcoma) and HCT 116 (colorectal carcinoma) cancer cell lines in vitro. Published scientific data has described that interference with the IGF-1R signaling pathway reduces the proliferation of TC-71 cells (Manara et al, 2007). Therefore TC-71 cells served as a positive control cell line for monitoring the activity of compounds against IGF-1R-mediated cell proliferation. […] Therefore the HCT 116 cell line served as a negative control.
(§3) 2000 TC-71 cells or 1000 HCT 116 cells were seeded per well in 180 μL IMDM+10% foetal calf serum (FCS)+penicillin/streptomycin into 96-well microtitre plates. The plates were placed in a cell culture incubator (37° C. in a humidified atmosphere of […]/5% CO2) overnight. The following day, serial dilutions of compounds, prepared in duplicates, were transferred onto the cell layers (controls without compound). The cells were cultivated for a further 72 h in the cell culture incubator. 20 μL of Alamar Blue™ (Serotec Ltd, Dusseldorf, Germany) was added to each well and the plates incubated for 7 h in the cell culture incubator. Fluorescence (extinction wavelength of 544 nm and emission at 590 nm) was then measured and the normalized data fitted by iterative calculation with a sigmoidal curve analysis program (Graph Pad Prism) with a variable Hill slope to determine the EC50 values.

[2] = test system: TC-71 (EWING'S sarcoma) cells; experiment: Cell proliferation assay TC-71 (Alamar Blue); format: cell-based; details: anti-proliferative effect, TC-71 cells, 72 h; read-out: TC71 EC50
Experimental: as §1, §2, §3

human IGF-1R = molecular target: T1, human IGF-1R (Homo sapiens, UniProt P08069); experiment: Insulin-like growth factor-1 receptor (IGF-1R)-kinase assay (DELFIA); format: biochemical; details: inhibition of IGF-1R-kinase activity
T1 construct: human IGF-1R (amino acids 964-1370) is expressed as a fusion protein; made in house; host or cells: High Five insect cells (Invitrogen)
T1 sequence (P08069 964-1367 limits assumed): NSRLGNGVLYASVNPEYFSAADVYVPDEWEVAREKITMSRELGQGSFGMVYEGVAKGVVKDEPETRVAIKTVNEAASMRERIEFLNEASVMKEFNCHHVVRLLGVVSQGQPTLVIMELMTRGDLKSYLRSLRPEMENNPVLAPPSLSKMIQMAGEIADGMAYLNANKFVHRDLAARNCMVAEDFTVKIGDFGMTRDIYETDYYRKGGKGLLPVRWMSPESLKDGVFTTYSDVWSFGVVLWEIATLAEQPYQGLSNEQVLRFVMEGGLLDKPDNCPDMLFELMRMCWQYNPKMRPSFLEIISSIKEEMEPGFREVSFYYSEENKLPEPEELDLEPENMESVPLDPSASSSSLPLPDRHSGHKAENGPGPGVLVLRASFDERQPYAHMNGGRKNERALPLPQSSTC
Experimental: Insulin-Like Growth Factor-1 Receptor (IGF-1R)-Kinase Assay
The kinase activity is measured by DELFIA® assay (dissociation-enhanced lanthanide fluorescence immunoassay, Perkin Elmer). The cytoplasmic kinase domain of human IGF-1R (amino acids 964-1370) is expressed as a fusion protein with a glutathione-S-transferase tag (IGF-1R-GST) in High Five™ Cells (Invitrogen). Enzyme activity is measured in the presence of substances and a control substance. Poly-glutamate-tyrosine peptide (pEY, Sigma Aldrich) and biotinylated pEY (bio-pEY) are used as reaction substrates.
10 μL of substance in 25% DMSO are mixed with 30 μL of IGF-1R-GST solution (67 mM HEPES pH 7.4, 15 μg/mL pEY, 1.7 μg/mL bio-pEY, 13.3 mM MgCl2, 3.3 mM dithiothreitol, 0.0033% Brij 35, 2 ng IGF-1R-GST) in 96-well plates. The reactions are started with 10 μL of a 750 μM ATP solution. After 40 min at RT the reactions are stopped with 50 μL of stop solution (250 mM EDTA, 20 mM HEPES pH 7.4). 90 μL from each reaction are transferred onto streptavidin-coated 96-well plates. After 120 min incubation at RT the plates are washed three times with 200 μL phosphate-buffered saline (PBS) per well. The plates are incubated for 60 min with 100 μL of europium-coupled antibody against phospho-tyrosine (diluted 1/2000 in Perkin Elmer DELFIA assay buffer) per well. The plates are washed three times with 200 μL per well of DELFIA washing buffer (Perkin Elmer). 100 μL DELFIA Enhancement Solution (Perkin Elmer) is added to each well, and the plates are incubated for 10 min. The fluorescence signal is measured with a Wallac Victor TRF Reader. IC50 values for the inhibition of the IGF-1R-kinase activity are calculated using the programme GraphPad (Version 3.0).

EC50 [1] [nM]	EC50 [2] [nM]	IC50 (human IGF-1R) [nM]	Compound
> 2500	6.82	1.5	CC(C(=O)OC[C@H]1CCCN1)N1CCN(CCn2ccc(Nc3ncc4c(n3)-c3c(nn(C)c3-c3ccccc3)C[C@H]4C)n2)CC1 (stereo partly drawn) [Compound I-4]
> 2500	4	4.8	C[C@@H]1Cc2nn(C)c(-c3ccccc3)c2-c2nc(Nc3ccn(CCN4CCN(CC(C)(C)O)C(=O)C4)n3)ncc21 [Compound I-5]
> 2500	5	1.1	C[C@@H]1Cc2nn(C)c(-c3ccccc3)c2-c2nc(Nc3ccn(CCN4CCN(CC(=O)OC5CCOC5)CC4)n3)ncc21 (stereo partly drawn) [Compound I-6]
> 2500	5.93	2.2	C[C@@H]1Cc2nn(C)c(-c3ccccc3)c2-c2nc(Nc3ccn(CCN4CCN(CCO)CC4)n3)ncc21 [Compound I-10]
